{"source": "paper PMC8308585", "about": "“Design and Synthesis of Novel Thiazolo[5,4-d]pyrimidine Derivatives with High Affinity for Both the Adenosine A1 and A2A Receptors, and Efficacy in Animal Models of Depression” (Pharmaceuticals, 2021)", "key": {"[1]": {"target": "T1, human A2A AR (Homo sapiens, UniProt P29274)", "T1 construct": "expressed in transfected cells; host or cells: CHO cells", "T1 sequence (P29274 whole entry)": "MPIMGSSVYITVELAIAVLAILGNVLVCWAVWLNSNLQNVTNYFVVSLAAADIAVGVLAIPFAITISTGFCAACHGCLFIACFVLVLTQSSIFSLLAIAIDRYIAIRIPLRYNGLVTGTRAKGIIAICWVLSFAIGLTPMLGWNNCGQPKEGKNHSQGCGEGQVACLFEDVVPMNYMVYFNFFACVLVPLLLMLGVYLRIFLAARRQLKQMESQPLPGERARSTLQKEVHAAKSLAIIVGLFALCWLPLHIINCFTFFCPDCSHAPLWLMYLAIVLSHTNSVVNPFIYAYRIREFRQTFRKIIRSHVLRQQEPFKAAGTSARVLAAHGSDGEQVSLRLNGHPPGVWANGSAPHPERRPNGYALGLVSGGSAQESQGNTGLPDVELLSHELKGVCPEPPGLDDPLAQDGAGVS", "experiment": "Radioligand binding, displacement of [3H]-NECA at hA2A AR in CHO cells;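 for all read-outs here: competition binding on membranes from CHO cells stably transfected with human A2A receptor, binding curves fitted by nonlinear regression in GraphPad Prism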", "quoted_text": "CHO cells, stably expressing hARs, were grown adherently and maintained in Dulbecco’s modified Eagle’s medium (DMEM) with nutrient mixture F12 supplemented with 10% fetal bovine serum (FBS), penicillin (100 µg/mL), streptomycin (100 µg/mL), sodium pyruvate (1 mM), and geneticin (0.1 mg/mL).\nBriefly, cells were homogenized in cold lysis buffer (5 mM Tris HCl, 2 mM EDTA, pH 7.4), centrifuged at low speed spin for 10 min, and subsequently, the supernatant was spun at 37,000 rpm. Membrane pellet was resuspended in the specific buffer and stored at −80 °C.\nThe binding affinity of the novel compounds was evaluated using radioligand competition experiments in CHO cells stably transfected with hA1 AR, hA2A AR, and hA3 AR subtypes.\nBinding data and concentration–response curves were fitted by a nonlinear regression with the Prism program (GraphPAD Prism 7 Software, San Diego, CA, USA)."}, "[2]": {"tested_on": "mice", "experiment": "Forced swimming test", "assay_type": "in vivo, mouse", "conditions": "for Immobility Time: mouse FST, single dose 26 min before test, last 4 min of 6 min, mean ± SEM of 10 mice, vehicle 193.7 ± 8.9", "description": "To execute the tests, mice were divided into groups, each of which consisted of 10 animals. The tests were performed after a single p.o. administration of compound 18 at different dosages (10 mg Kg^−1 and 30 mg Kg^−1). Amitriptyline (15 mg Kg^−1) was used as the reference drug. Compounds were acutely administrated 26 min before the beginning of the experiment. In the FST (Table 4), the duration of immobility was recorded during the last 4 min of the 6 min test.\n(§1) Male CD-1 albino mice (22–25 g; Envigo, Varese, Italy) were housed in CeSAL (Centro Stabulazione Animali da Laboratorio, University of Florence, Florence, Italy) and used at least one week after their arrival. Animals were housed in 26 cm × 41 cm cages (12 mice each) and fed with a standard laboratory diet and tap water ad libitum. They were kept at 23 ± 1 °C with a 12 h light/dark cycle, light at 7 a.m. Compound 18 was administered per o.s. whereas amitriptyline was by a s.c. route following the most widely used approach reported in the literature.\nMice were individually placed into glass cylinders (height: 25 cm, diameter: 10 cm) containing 12 cm of water maintained at 22–23 °C for 6 min. Immobility was considered the animal floated in the water, in an upright position, and made only small movements to keep its head above water. The immobility time was recorded during the last 4-min of the 6-min test. A decrease in the duration of immobility is indicative of an antidepressant-like effect.\n(§2) Behavioral tests were performed by visual observation by researchers blinded to the treatments. Results were expressed as means ± SEM, variance was analyzed by ANOVA. A Bonferroni’s significant difference procedure was used as post-hoc comparison. p values of less than 0.05 and 0.01 were considered significant. Data were analyzed using the “Origin 8.1” software."}, "[3]": {"tested_on": "mice", "experiment": "Sucrose preference test, LPS-induced anhedonia", "assay_type": "in vivo, mouse", "conditions": "for Sucrose Preference (%), 6 h / Sucrose Preference (%), 24 h: LPS 1.25 mg kg^−1 i.p. mice; for Sucrose Preference (%), 6 h: 6 h after LPS, vehicle + LPS 42.3 ± 3.1; for Sucrose Preference (%), 24 h: 24 h after LPS, vehicle + LPS 38.0 ± 5.6", "description": "Anhedonia, or the inability to experience pleasure, is a common symptom of depression. The mood regulatory role of 18 was studied against anhedonia evaluated in the sucrose preference test in animals treated with lipopolysaccharide (LPS), a model of neuroinflammation-induced depressive-like syndrome. Compound 18 (10 mg kg^−1 and 30 mg kg^−1) was daily p.o administered for five consecutive days. Twenty-four hours after the last 18 treatment, LPS 1.25 mg kg^−1 was intraperitoneally injected. Immediately after LPS injection, mice were placed in cages equipped with two bottles: a bottle of 2% sucrose solution and a bottle of water (unsweetened tap water). The consumption of the 2% sucrose solution was evaluated 6 h and 24 h after LPS injection. Amitriptyline (15 mg kg^−1) was used as the reference drug administered following the same protocol.\nas §1\nLipopolysaccharide (LPS) from Escherichia coli was purchased from Sigma-Aldrich, (Milan, Italy) freshly dissolved in sterile saline, and injected intraperitoneally (i.p.) at the dose of 1.25 mg kg^−1 [49] after five consecutive days of treatment with compound 18, 1 h after the last administration of the compound. Behavioral tests were performed before 6 h and 24 h after LPS administration.\nMice were placed in cages equipped with a couple of bottles, one containing 2% sucrose solution, the second with water (unsweetened tap water). The consumption of the 2% sucrose solution was evaluated 6 h and 24 h after the beginning of the experiment. The preference index was calculated according to the following formula: preference index = volume consumed sucrose solution/(volume consumed sucrose solution + volume consumed water).\nas §2"}, "[4]": {"conditions": "10 mg kg^−1 p.o. daily for 5 days"}, "[5]": {"conditions": "30 mg kg^−1 p.o. daily for 5 days"}}, "note": "Like-named read-outs stand apart in the source and are kept apart here.", "data": [{"molecule": "Nc1nc(-c2ccco2)nc2sc(Cc3ccccc3F)nc12", "note": "[compound 18, 2-(2-Fluorobenzyl)-5-(furan-2-yl)thiazolo[5,4-d]pyrimidin-7-amine]", "values": [{"measurement": "Ki", "setting": "[1]; displacement of specific [3H]-NECA binding, CHO cells, mean ± SEM, read-out: hA2A Ki", "value": "60 ± 20", "unit": "pM"}, {"measurement": "Ki", "setting": "[1]; hA2A AR, as listed in Table 3, read-out: pKi A2A (converted)", "value": 64.6, "unit": "pM"}, {"measurement": "Immobility Time", "setting": "[2]; 10 mg kg^−1 p.o.", "value": "184.7 ± 5.6", "unit": "s"}, {"measurement": "Immobility Time", "setting": "[2]; 30 mg kg^−1 p.o.", "value": "143.5 ± 9.1", "unit": "s"}, {"measurement": "Antidepressant-like effect in FST (in words)", "setting": "[2]; mouse, 10 and 30 mg Kg^−1 p.o., vs amitriptyline 15 mg Kg^−1", "value": "dose-dependently induced an antidepressant-like effect comparable to that induced by the clinically used drug amitriptyline"}, {"measurement": "Sucrose Preference (%), 6 h", "setting": "[3]; [4]", "value": "48.9 ± 6.7", "unit": "%"}, {"measurement": "Sucrose Preference (%), 24 h", "setting": "[3]; [4]", "value": "39.7 ± 3.7", "unit": "%"}, {"measurement": "Sucrose Preference (%), 6 h", "setting": "[3]; [5]", "value": "67.3 ± 1.6", "unit": "%"}, {"measurement": "Sucrose Preference (%), 24 h", "setting": "[3]; [5]", "value": "64.9 ± 2.6", "unit": "%"}, {"measurement": "Anhedonia-like behavior induced by LPS, preference index (in words)", "setting": "[3]; mouse, 30 mg kg^−1 p.o. daily for 5 days", "value": "able to revert the anhedonia-like behavior induced by LPS comparably to the effect of amitriptyline"}]}]}
